Assay results published in patent publication US12358867B1, “Peptoid-based inhibitors of the protein arginine methyltransferase (PRMT) family” (University of North Florida Board of Trustees, priority 2020, dated 2025).
Read-outs that look alike come from different tables or passages of the source. Each block holds one compound with its values, some of them ahead of it. Starred links: 1 amine or outer side, 2 acyl side, 3 side chain; linkers in the order of their positions; H or OH if unused. Non-standard residues stand in square brackets, D forms with d. Residues, ends and D or L forms follow the SMILES beside them. Gly(N-(CH2)3-guanidino) = N=C(N)NCCCNCC(=O)O; X1 = N=C(CCl)NCCCN(CC(=O)[*:2])[*:1]; Gly(N-CH2CH2OH) = O=C(O)CNCCO; Nleu = CC(C)CNCC(=O)O; Nlys = NCCCCNCC(=O)O; Sar = CNCC(=O)O

What was measured:
[1] = system: HepaRG immortalized, terminally differentiated liver cells; conditions: non-tumorigenic HepaRG; for growth over time course: 72 hour time course
Protocol: (§1) MDA-MB-468 breast carcinoma cells (ATCC; HTB132), HCT116+/+p53 colon carcinoma cells were grown in DMEM supplemented in 5% FBS. HepaRG terminally differentiated liver cell line (Thermoscientific; HPRGC10) and HepaRG-Fucci cells were grown in Williams media supplemented with Glutamax and 5% FBS and normal Human Mammary Epithelial Cells (HMEC) (ATCC; PCS-600-010) were grown in Mammary epithelial basal medium (ATCC; PCS-600-030) supplemented with mammary epithelial cell growth kit (ATCC; PCS-600-040). Cells were recovered with 0.25% trypsin-EDTA, plated on cell culture treated plates and/or coverslips according to the experimental design and incubated overnight in 37° C. humidified CO2 incubator kept at 5% CO2 (800WJ; Thermoscientific). Cells were washed twice with sterile PBS before switching to serum free treatment media along with varying concentrations of the PRMT inhibitor compound (0-40 μM).
(§2) Cell viability and growth was assessed using the crystal violet assay as described by Oliver et al., J Cell Sci, 1989). […] Cells were fixed at each time point with 100% methanol and stained with 1% crystal violet in 0.01M borate buffer (pH 8.9). Absorbance of dye eluted in 1:1 (v/v) ethanol: 0.01M HCl was checked at 650 nm by microplate reader. The cell growth rate was calculated by the following formula: Cell growth rate (%)=(A650 at n hour/A650 0 h). Each condition was tested in triplicate and repeated three independent times.

[2] = system: Human Mammary Epithelial Cells (HMEC); conditions: normal HMEC, 72 hour time course
Protocol: as §1, §2

[3] = system: caspase-3 activity in HepaRG cells; conditions: only at the highest dose
Protocol: Caspase-3 activity assay was performed on extracted protein lysates using colorimetric caspase-3 activity assay (K106; Biovision) as per manufacturer's protocol. Briefly, 50 μL of extracted protein was plated in a UV compatible 96 well plate. DEVD-pNA substrate in prepared 1× buffer was added to each sample. The plate was shaken for 10 minutes and incubated at 37° C. in Biorad plate reader and read at 405 nm every 10 minutes for 2 hours.

PRMT1 [4] = target: T1, PRMT1 (Homo sapiens, UniProt Q99873); experiment: IC50 assay, MTase-Glo Methyltransferase assay; assay type: biochemical
T1 construct: made in house
Protocol: The efficacy of the peptoid inhibitors was probed using the MTase-Glo Methyltransferase assay kit. Various concentrations (0-1000 μM) of peptoid was incubated in assay buffer (20 mM Tris-HCl pH 8.0, 50 mM NaCl, 1 mM EDTA, 3 mM MgCl2, 0.1 mg/ml BSA, 1 mM DTT) at 37° C. for 10 min. Afterward, the inhibitor was allowed to interact with 200 nM PRMT1 for 15 min at 37° C. The reaction was catalyzed with 225 μM of AcH4-21 (a PRMT1 peptide substrate), continued for 15 min at 37° C., was quenched with the addition of 0.5% TFA (0.1% final concentration, 10 min, r.t.), followed by the addition of MTase-Glo Reagent to a final concentration of 1×. After 30-min incubation at r.t., MTase-Glo Detection Solution was added and incubated for 30 min at r.t. Luminescence signal was converted to product concentration using SAH standards (0-5 μM), following the above assay. Immediately afterwards, the luminescence signal was read with a BioTek Synergy 2 Multi-Mode Microplate Reader. IC50 values were determined by fitting the data to equation (2) using GraFit version 7.03. Fractional activity of PRMT=1/(1+([I]/IC50)) (2) where [I] is the inhibitor concentration and IC50 is the concentration of inhibitor resulting in 50% PRMT activity.
The IC50 value for the peptoid inhibitors were measured using the MTase-Glo Methyltransferase assay kit (Promega). The peptoid was incubated in assay buffer (20 mM Tris-HCl pH 8.0, 50 mM NaCl, 1 mM EDTA, 3 mM MgCl2, 0.1 mg/mL BSA, 1 mM DTT) and substrate (0-1000 μM) at either 37° C. (PRMT1) or 25° C. (PRMT5). After a pre-incubation of 10 minutes, 200 nM PRMT1 or PRMT5 was added to the assay before adding in the substrate, AcH4-21, at 225 μM. The reaction proceeded for 15 minutes before being quenched with 0.5% TFA (0.1% final concentration), vortexed, and incubated for an additional 10 minutes. To detect product formation, the MTase-Glo Reagent was added for 30 minutes at r.t., followed by addition of the MTase-Glo Detection solution for an additional 30 minutes. Finally, the luminescence signal was measured using a BioTek Synergy 2 Multi-Mode Microplate Reader. The values were converted to product concentration using a standard curve of S-adenosylhomocysteine (SAH; 0-5 μM). The IC50 values were determined using equation 1 and fit to a curve using GraFit 7.03. Fractional activity of PRMT=1/(1+([I]/IC50)) (2) IC50 is the concentration of inhibitor resulting in 50% PRMT activity and [I] is the inhibitor concentration. Cell Culture and Conditions

PRMT1 [5] = target: T1, PRMT1; experiment: Km assay, MTase-Glo Methyltransferase assay (peptoid as substrate); assay type: biochemical; conditions: peptoid 0-1000 μM, 200 nM PRMT1
Protocol: The kinetics of each peptoid were determined using the MTase-Glo Methyltransferase assay kit to monitor the conversion of S-adenosylmethionine (SAM) to S-adenosylhomocysteine (SAH). Briefly, various concentrations (0-1000 μM) of the peptoid in assay buffer (20 mM Tris-HCl pH 8.0, 50 mM NaCl, 1 mM EDTA, 3 mM MgCl2, 0.1 mg/ml BSA, 1 mM DTT) were incubated at 37° C. After 10 min, 200 nM PRMT1 was added to initiate the reaction. The reaction proceeded for 10 min at 37° C. until quenched with the addition of 0.5% TFA (0.1% final concentration, 10 min, r.t.) followed by the addition of MTase-Glo Reagent to a final concentration of 1×. After 30 min incubating at r.t, MTase-Glo Detection Solution was added and incubated for 30 min at r.t. Immediately afterwards, the luminescence signal was read with a BioTek Synergy 2 Multi-Mode Microplate Reader. Luminescence signal was converted to product concentration using SAH standards (0-5 μM), following the above assay. The initial rates were fitted into equation (1) using GraFit version 7.03. V=Vmax[S]/(Km+[S]) (1) IC50 Assay

[6] = listed as unacetylated H4-16 warhead chloracetamidine peptoid
[7] = histone H4 peptoids, SAM 40 μM, substrate AcH4-21 225 μM, read-out: IC50

T1 sequence (Q99873 1-353 isoform Q99873-3, species assumed): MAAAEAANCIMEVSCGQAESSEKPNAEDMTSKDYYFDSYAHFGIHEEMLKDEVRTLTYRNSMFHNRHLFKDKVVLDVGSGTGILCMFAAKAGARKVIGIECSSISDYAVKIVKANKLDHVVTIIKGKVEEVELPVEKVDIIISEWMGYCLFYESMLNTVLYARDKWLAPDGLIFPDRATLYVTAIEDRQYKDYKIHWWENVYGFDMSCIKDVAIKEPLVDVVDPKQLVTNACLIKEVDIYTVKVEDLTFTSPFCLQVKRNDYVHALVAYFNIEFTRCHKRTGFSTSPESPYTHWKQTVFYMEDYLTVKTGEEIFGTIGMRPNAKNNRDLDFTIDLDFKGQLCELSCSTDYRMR

SMILES: CC(C)CN(CC(=O)NCC(=O)N(CCCCN)CC(=O)NCC(=O)NCC(=O)N(C)CC(=O)N(CCCCN)CC(N)=O)C(=O)CNC(=O)CN(CCCCN)C(=O)CNC(=O)CNC(=O)CN(CCCCN)C(=O)CNC(=O)CN(CCCNC(=N)CCl)C(=O)CNC(=O)CNCCO [Peptoid P2] (H-[Gly(N-CH2CH2OH)]G[X1]G[Nlys]GG[Nlys]G[Nleu]G[Nlys]GG[Sar][Nlys]-NH2)
cell viability ([1]; 0-40 μM, 48 hours): no prominent change
growth over time course [1]: no detectable effect in growth
growth over time course [1, 6]: No detectable effect in growth
growth over time course [2]: no detectable effect in growth
growth over time course [2, 6]: No detectable effect in growth
caspase-3 activity [3]: minimal activation of caspase-3
caspase-3 activity [3, 6]: Only minimal activation of caspase-3

SMILES: CC(=O)N(CCO)CC(=O)NCC(=O)N(CCCNC(=N)N)CC(=O)NCC(=O)N(CCCCN)CC(=O)NCC(=O)NCC(=O)N(CCCCN)CC(=O)NCC(=O)N(CC(=O)NCC(=O)N(CCCCN)CC(=O)NCC(=O)NCC(=O)N(C)CC(=O)N(CCCCN)CC(N)=O)CC(C)C [AcH4-16 peptoid] (Ac-[Gly(N-CH2CH2OH)]G[Gly(N-(CH2)3-guanidino)]G[Nlys]GG[Nlys]G[Nleu]G[Nlys]GG[Sar][Nlys]-NH2)
IC50 (PRMT1 [4]): 0.916 ± 0.0195 mM

SMILES: CC(=O)N(CCO)CC(=O)NCC(=O)N(CCCNC(=N)N)CC(=O)NCC(=O)N(CCCCN)CC(=O)NCC(=O)NCC(=O)N(CCCCN)CC(=O)NCC(=O)N(CC(=O)NCC(=O)N(CCCCN)CC(=O)NCC(N)=O)CC(C)C [AcH4-13] (Ac-[Gly(N-CH2CH2OH)]G[Gly(N-(CH2)3-guanidino)]G[Nlys]GG[Nlys]G[Nleu]G[Nlys]G-NH2)
IC50 (PRMT1 [4]): > 1 mM
modification / product turnover as PRMT1 substrate (PRMT1 [5]): low product turnover

IC50 (PRMT1 [4]; [7]): > 1 mM
modification / product turnover as PRMT1 substrate (PRMT1 [5]): low product turnover
SMILES: CC(=O)N(CCO)CC(=O)NCC(=O)N(CCCNC(=N)N)CC(=O)NCC(=O)N(CCCCN)CC(=O)NCC(=O)NCC(=O)N(CCCCN)CC(N)=O [AcH4-8] (Ac-[Gly(N-CH2CH2OH)]G[Gly(N-(CH2)3-guanidino)]G[Nlys]GG[Nlys]-NH2)

IC50 (PRMT1 [4]; [7]): > 1 mM
SMILES: N=C(N)NCCCN(CC(=O)NCC(=O)N(CCCCN)CC(=O)NCC(=O)NCC(=O)N(CCCCN)CC(N)=O)C(=O)CNC(=O)CNCCO [Peptoid H4-8] (H-[Gly(N-CH2CH2OH)]G[Gly(N-(CH2)3-guanidino)]G[Nlys]GG[Nlys]-NH2)
inhibition of PRMT1 (PRMT1 [4]; up to 1000 μM): did not show any inhibition up to 1000 μM
